Source: ChEMBL document CHEMBL4321785, “Challenges and Opportunities for Therapeutics Targeting the Voltage-Gated Sodium Channel Isoform NaV1.7” (J Med Chem, 2019)
Values joined by “and” are separate entries in the source; they are usually repeats but may differ in a detail not shown here. Identical values can stand only once.

Tests used:
[1] = molecular target: Sodium channel protein type 9 subunit alpha (Homo sapiens, UniProt Q15858); assay: Inhibition of human Nav1.7 expressed in HEK293 cells by electrophysiology assay; format: cell-based
[2] = molecular target: Sodium channel protein type 2 subunit alpha (Homo sapiens, UniProt Q99250); assay: Inhibition of human Nav1.2 expressed in HEK293 cells by electrophysiology assay; format: cell-based
[3] = molecular target: Sodium channel protein type 5 subunit alpha (Homo sapiens, UniProt Q14524); assay: Inhibition of human Nav1.5 expressed in HEK293 cells by electrophysiology assay; format: cell-based
Sodium channel protein type 5 subunit alpha, sequence (Q14524 whole entry): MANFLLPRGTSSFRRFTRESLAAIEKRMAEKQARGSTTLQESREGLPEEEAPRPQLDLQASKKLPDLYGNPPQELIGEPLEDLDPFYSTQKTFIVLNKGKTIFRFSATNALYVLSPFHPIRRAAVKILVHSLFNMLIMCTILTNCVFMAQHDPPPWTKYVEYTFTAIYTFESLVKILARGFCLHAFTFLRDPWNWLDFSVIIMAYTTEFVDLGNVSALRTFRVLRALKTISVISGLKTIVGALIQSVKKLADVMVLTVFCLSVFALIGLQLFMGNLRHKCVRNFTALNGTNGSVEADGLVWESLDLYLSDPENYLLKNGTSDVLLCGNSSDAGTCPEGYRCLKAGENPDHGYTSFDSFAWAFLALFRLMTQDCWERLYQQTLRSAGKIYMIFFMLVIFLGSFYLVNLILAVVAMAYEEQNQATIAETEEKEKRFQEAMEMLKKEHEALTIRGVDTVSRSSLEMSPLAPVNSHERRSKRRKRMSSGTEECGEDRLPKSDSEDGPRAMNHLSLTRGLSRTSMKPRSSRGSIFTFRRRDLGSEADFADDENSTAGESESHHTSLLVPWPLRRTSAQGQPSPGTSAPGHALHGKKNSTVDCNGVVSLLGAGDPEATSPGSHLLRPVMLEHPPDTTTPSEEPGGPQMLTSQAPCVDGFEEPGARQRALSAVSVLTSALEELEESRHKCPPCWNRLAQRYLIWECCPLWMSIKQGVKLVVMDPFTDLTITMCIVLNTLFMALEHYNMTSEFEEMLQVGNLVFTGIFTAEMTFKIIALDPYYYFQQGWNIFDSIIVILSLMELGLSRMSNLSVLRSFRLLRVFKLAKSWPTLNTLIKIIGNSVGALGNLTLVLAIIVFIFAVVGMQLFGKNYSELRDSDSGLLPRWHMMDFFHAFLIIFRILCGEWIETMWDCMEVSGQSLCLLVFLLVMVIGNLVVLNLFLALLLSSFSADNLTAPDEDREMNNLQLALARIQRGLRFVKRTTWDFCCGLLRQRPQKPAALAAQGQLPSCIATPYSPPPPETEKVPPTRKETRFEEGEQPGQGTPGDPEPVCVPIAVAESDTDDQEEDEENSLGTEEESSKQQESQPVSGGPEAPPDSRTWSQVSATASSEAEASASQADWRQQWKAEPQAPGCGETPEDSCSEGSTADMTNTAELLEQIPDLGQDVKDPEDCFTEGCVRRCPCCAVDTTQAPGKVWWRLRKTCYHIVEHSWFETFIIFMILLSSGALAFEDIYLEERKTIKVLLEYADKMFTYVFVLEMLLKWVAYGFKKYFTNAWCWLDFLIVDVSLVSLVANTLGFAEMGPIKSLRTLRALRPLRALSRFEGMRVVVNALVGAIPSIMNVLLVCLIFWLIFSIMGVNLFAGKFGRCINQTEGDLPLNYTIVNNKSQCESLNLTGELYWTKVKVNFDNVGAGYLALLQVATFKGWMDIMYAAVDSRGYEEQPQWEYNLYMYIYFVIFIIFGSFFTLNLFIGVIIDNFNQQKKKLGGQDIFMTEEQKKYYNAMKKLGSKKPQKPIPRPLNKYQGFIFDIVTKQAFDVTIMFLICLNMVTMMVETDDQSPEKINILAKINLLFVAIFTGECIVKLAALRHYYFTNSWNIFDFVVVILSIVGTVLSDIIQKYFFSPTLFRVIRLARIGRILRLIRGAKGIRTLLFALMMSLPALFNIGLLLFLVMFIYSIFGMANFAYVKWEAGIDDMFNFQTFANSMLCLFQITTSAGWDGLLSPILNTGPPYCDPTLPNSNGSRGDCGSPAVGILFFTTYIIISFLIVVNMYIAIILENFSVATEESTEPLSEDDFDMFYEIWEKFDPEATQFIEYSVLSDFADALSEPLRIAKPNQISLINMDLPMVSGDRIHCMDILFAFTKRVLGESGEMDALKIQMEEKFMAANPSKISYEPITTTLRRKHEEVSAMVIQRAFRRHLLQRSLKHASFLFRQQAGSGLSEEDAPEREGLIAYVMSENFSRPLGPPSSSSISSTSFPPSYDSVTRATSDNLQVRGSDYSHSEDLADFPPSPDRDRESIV

[4] = molecular target: Sodium channel protein type 8 subunit alpha (Homo sapiens, UniProt Q9UQD0); assay: Inhibition of human Nav1.6 expressed in HEK293 cells by electrophysiology assay; format: cell-based
Sodium channel protein type 8 subunit alpha, sequence (Q9UQD0 whole entry): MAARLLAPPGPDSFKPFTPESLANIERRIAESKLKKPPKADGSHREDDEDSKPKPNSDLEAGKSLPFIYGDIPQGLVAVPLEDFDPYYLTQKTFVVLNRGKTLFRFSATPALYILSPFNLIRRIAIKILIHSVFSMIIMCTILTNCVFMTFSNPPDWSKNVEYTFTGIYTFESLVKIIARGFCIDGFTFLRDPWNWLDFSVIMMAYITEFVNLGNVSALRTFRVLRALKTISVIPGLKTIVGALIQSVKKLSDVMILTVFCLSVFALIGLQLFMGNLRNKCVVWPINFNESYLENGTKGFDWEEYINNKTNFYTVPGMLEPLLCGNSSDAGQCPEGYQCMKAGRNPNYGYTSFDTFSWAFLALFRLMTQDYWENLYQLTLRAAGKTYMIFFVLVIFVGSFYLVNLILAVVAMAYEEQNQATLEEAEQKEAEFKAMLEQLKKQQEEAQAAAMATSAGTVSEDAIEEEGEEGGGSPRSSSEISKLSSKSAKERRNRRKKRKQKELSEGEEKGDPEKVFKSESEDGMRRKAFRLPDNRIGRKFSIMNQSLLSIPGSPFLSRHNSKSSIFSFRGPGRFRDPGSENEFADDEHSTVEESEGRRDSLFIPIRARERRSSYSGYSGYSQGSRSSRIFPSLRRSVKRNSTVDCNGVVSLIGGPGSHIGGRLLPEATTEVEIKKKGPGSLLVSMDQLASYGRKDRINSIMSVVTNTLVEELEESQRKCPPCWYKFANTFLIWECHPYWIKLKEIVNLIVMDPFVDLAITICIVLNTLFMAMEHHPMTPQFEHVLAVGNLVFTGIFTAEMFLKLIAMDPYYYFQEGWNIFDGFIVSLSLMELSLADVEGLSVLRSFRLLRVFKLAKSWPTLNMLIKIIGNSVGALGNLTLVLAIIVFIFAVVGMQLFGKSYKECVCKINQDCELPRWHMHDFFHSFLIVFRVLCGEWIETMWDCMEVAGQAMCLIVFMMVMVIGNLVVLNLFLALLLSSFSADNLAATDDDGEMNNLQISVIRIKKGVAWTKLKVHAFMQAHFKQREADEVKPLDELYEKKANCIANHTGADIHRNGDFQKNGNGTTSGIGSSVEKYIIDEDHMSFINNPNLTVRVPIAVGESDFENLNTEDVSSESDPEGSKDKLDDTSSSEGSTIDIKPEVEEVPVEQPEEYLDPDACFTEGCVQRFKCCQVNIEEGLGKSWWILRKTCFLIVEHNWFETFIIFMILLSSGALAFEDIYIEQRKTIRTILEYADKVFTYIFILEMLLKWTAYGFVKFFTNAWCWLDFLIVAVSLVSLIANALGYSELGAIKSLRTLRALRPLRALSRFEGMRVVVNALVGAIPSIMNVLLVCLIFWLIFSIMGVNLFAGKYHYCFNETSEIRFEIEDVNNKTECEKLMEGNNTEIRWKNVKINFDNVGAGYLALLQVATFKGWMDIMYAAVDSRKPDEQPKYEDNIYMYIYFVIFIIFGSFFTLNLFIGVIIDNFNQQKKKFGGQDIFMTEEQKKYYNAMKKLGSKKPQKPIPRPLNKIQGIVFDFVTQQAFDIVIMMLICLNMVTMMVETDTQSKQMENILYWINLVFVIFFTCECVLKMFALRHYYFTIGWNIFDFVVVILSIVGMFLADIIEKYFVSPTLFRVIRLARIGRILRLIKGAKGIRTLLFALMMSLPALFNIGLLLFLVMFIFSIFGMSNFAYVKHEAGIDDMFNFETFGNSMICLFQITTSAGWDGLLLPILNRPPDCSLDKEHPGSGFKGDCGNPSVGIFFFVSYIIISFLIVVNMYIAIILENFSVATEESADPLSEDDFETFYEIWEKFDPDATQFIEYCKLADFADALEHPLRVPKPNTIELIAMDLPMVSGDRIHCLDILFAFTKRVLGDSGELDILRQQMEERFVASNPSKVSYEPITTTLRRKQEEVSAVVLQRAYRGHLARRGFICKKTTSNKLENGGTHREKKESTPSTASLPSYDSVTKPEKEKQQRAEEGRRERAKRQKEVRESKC

[5] = molecular target: Sodium channel protein type 10 subunit alpha (Homo sapiens, UniProt Q9Y5Y9); assay: Inhibition of human Nav1.8 expressed in HEK293 cells by electrophysiology assay; format: cell-based
Homo sapiens [6] = species on record: Homo sapiens; assay: Selectivity index, ratio of IC50 for inhibition of human Nav1.2 expressed in HEK293 cells by electrophysiology assay to IC50 for inhibition of human Nav1.7 expressed in HEK293 cells by electrophysiology assay; format: cell-based
Homo sapiens [7] = species on record: Homo sapiens; assay: Selectivity index, ratio of IC50 for inhibition of human Nav1.5 expressed in HEK293 cells by electrophysiology assay to IC50 for inhibition of human Nav1.7 expressed in HEK293 cells by electrophysiology assay; format: cell-based
Homo sapiens [8] = species on record: Homo sapiens; assay: Selectivity index, ratio of IC50 for inhibition of human Nav1.6 expressed in HEK293 cells by electrophysiology assay to IC50 for inhibition of human Nav1.7 expressed in HEK293 cells by electrophysiology assay; format: cell-based
Homo sapiens [9] = species on record: Homo sapiens; assay: Selectivity index, ratio of IC50 for inhibition of human Nav1.8 expressed in HEK293 cells by electrophysiology assay to IC50 for inhibition of human Nav1.7 expressed in HEK293 cells by electrophysiology assay; format: cell-based
Rattus norvegicus [10] = species on record: Rattus norvegicus
Rattus norvegicus [11] = species on record: Rattus norvegicus; remark: listed apart in the source
Rattus norvegicus [12] = species on record: Rattus norvegicus; remark: listed apart in the source
Homo sapiens [13] = species on record: Homo sapiens; assay: Selectivity index, ratio of IC50 for inhibition of human Nav1.1 expressed in HEK293 cells by electrophysiology assay to IC50 for inhibition of human Nav1.7 expressed in HEK293 cells by electrophysiology assay; format: cell-based
[14] = Ratio of unbound plasma concentration in mouse model of formalin-induced pain to IC50 for inhibition of mouse Nav1.7 expressed in HEK293 cells by electrophysiology assay; format: cell-based
[15] = Ratio of unbound plasma concentration in mouse model of inherited erythromelalgia to IC50 for inhibition of human Nav1.7 expressed in HEK293 cells by electrophysiology assay; format: cell-based
[16] = molecular target: Sodium channel protein type 1 subunit alpha (Homo sapiens, UniProt P35498); assay: Inhibition of human Nav1.1 expressed in HEK293 cells by electrophysiology assay; format: cell-based
[17] = molecular target: Sodium channel protein type 3 subunit alpha (Homo sapiens, UniProt Q9NY46); assay: Inhibition of human Nav1.3 expressed in HEK293 cells by electrophysiology assay; format: cell-based
[18] = molecular target: Sodium channel protein type 4 subunit alpha (Homo sapiens, UniProt P35499); assay: Inhibition of human Nav1.4 expressed in HEK293 cells by electrophysiology assay; format: cell-based
Homo sapiens [19] = species on record: Homo sapiens; assay: Selectivity index, ratio of IC50 for inhibition of human Nav1.3 expressed in HEK293 cells by electrophysiology assay to IC50 for inhibition of human Nav1.7 expressed in HEK293 cells by electrophysiology assay; format: cell-based
Homo sapiens [20] = species on record: Homo sapiens; assay: Selectivity index, ratio of IC50 for inhibition of human Nav1.4 expressed in HEK293 cells by electrophysiology assay to IC50 for inhibition of human Nav1.7 expressed in HEK293 cells by electrophysiology assay; format: cell-based
[21] = molecular target: Sodium channel protein type 9 subunit alpha (Rattus norvegicus, UniProt O08562); assay: Inhibition of rat Nav1.7 expressed in HEK293 cells by electrophysiology assay; format: cell-based
[22] = Unbound fraction in mouse plasma; format: ADME, cell-free
[23] = Ratio of unbound plasma concentration in mouse model of histamine-induced pain to IC50 for inhibition of mouse Nav1.7 expressed in HEK293 cells by electrophysiology assay; format: cell-based
[24] = Ratio of unbound plasma concentration in mouse model of capsaicin-induced pain to IC50 for inhibition of mouse Nav1.7 expressed in HEK293 cells by electrophysiology assay; format: cell-based
[25] = Cmax in healthy human; format: ADME; conditions: in vivo

For O=C1N(Cc2ccc(C(F)(F)F)o2)c2ccccc2[C@]12COc1cc3c(cc12)OCO3 [FUNAPIDE], the IC50 [1] was 0.054 µM, the IC50 [2] was 0.6 µM and the IC50 [3] was 0.084 µM. It also gave an IC50 [4] of 0.17 µM, an IC50 [5] of 4.8 µM and a Ratio IC50 (Homo sapiens [6]) of 11. The Ratio IC50 (Homo sapiens [7]) was 1.5, the Ratio IC50 (Homo sapiens [8]) was 3.1 and the Ratio IC50 (Homo sapiens [9]) was 89.

Work on NC1=N[C@H](O)[C@H]2[C@H]3O[C@]4(O)O[C@@H]([C@@H](O)[C@@]2(N1)[C@@H]4O)[C@]3(O)CO yielded an ED (Rattus norvegicus [10]) of 6 µg/kg, an ED (Rattus norvegicus [11]) of 1 µg/kg and an ED (Rattus norvegicus [12]) of 1 to 3 µg/kg.

With CC1(COc2cc(F)c(C(=O)NS(=O)(=O)C3CC3)cc2C2CC2)CCC2(CC1)CC2 the Ratio IC50 (Homo sapiens [13]) was 10, the Ratio IC50 (Homo sapiens [6]) was 3.3 and the Ratio IC50 (Homo sapiens [7]) was 83. It also gave a Ratio IC50 (Homo sapiens [8]) of 63, a Ratio [14] of 22 and a Ratio [15] of 5.2.

In the case of COc1cc(-c2cc(F)cc(Cl)c2)c(F)cc1-n1c(=O)ccc2cc(S(=O)(=O)Nc3ccon3)ccc21, the IC50 [16] is reported as over 14 µM, the IC50 ([16]; hek293) is reported as over 14 µM and the IC50 [17] is reported as over 14 µM. It also gave an IC50 ([17]; hek293) of over 14 µM, an IC50 [18] of over 14 µM and an IC50 ([18]; hek293) of over 14 µM. For the same molecule, the IC50 [3] was over 14 µM, the IC50 ([3]; hek293) was over 14 µM and the IC50 [4] was 1.3 µM and > 10 µM. It also gave a Ratio IC50 (Homo sapiens [13]) of over 4300, a Ratio IC50 (Homo sapiens [19]) of over 4300 and a Ratio IC50 (Homo sapiens [20]) of over 4300. The Ratio IC50 (Homo sapiens [7]) was over 4300, the IC50 [21] was 8.6 µM and > 42 µM and the Fu [22] was 0.014. For the same molecule, the fraction unbound [22] was 0.0017, the Ratio [23] was 5.3 and 4 and the Ratio [24] was 21.

For Nc1[nH]ncc1-c1cc(Cl)ccc1Oc1cc(F)c(S(=O)(=O)Nc2cscn2)cc1Cl [PF-05089771], the Cmax [25] was over 10 µg/mL.
